The compounds below were run against T1, human 5-hydroxytryptamine-2C (h5-HT2C) receptor (Homo sapiens, UniProt P28335) (assay: [125I]DOI binding to membranes of CHO cells expressing the human 5-HT2C receptor). Conditions: [125I]DOI radioligand, CHO cell membranes, room temperature 60 min; read-out: 5-HT2C Affinity Ki.
T1 construct: expressed in transfected cells; host or cells: CHO (Chinese Hamster Ovary) cells; membranes
T1 sequence (P28335 33-458): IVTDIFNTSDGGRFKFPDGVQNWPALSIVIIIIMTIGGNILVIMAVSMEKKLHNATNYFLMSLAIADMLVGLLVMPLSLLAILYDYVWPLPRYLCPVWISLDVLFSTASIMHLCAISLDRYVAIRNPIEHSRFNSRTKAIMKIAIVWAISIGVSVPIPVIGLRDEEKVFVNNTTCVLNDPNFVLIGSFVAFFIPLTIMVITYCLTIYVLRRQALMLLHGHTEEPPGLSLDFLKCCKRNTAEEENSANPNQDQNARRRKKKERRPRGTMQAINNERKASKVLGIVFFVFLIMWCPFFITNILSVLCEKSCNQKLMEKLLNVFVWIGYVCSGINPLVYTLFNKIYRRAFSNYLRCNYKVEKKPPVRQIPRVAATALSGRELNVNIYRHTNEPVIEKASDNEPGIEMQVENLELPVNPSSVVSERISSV

**Q.** For `Cc1cccc(C)c1-c1cccc2c1CC(CN)O2` (racemic) [Example 125, (±)-1-[4-(2,6-dimethylphenyl)-2,3-dihydro-1-benzofuran-2-yl]methanamine], which Ki is on record?
**A.** 276 nM

**Q.** `NCC1Cc2cccc(Nc3ccccc3)c2O1` (racemic) [Example 173, (±)-N-[2-(aminomethyl)-2,3-dihydro-1-benzofuran-7-yl]-N-phenylamine] was tested. Which Ki did it give?
**A.** 326 nM

**Q.** Which Ki does the source give for `Cc1ccc(Nc2cccc3c2OC(CN)C3)cc1` (racemic) [Example 174, (±)-N-[2-(aminomethyl)-2,3-dihydro-1-benzofuran-7-yl]-N-(4-methylphenyl)amine] here?
**A.** 203 nM

**Q.** With `NCC1Cc2cccc(Nc3ccc(Cl)cc3)c2O1` (racemic) [Example 175, (±)-N-[2-(aminomethyl)-2,3-dihydro-1-benzofuran-7-yl]-N-(4-chlorophenyl)amine] as the compound, how does the Ki read?
**A.** 384 nM

**Q.** For `COc1ccc(Nc2cccc3c2OC(CN)C3)cc1` (racemic) [Example 176, (±)-N-[2-(aminomethyl)-2,3-dihydro-1-benzofuran-7-yl]-N-(4-methoxyphenyl)amine], which Ki is on record?
**A.** 488 nM

**Q.** For `NCC1Cc2cccc(Nc3ccc(C(F)(F)F)cc3)c2O1` (racemic) [Example 177, (±)-N-[2-(aminomethyl)-2,3-dihydro-1-benzofuran-7-yl]-N-[4-(trifluoromethyl)phenyl]amine], which Ki is on record?
**A.** 353 nM

**Q.** With `NCC1Cc2cccc(Nc3ccc(F)cc3)c2O1` (racemic) [Example 178, (±)-N-[2-(aminomethyl)-2,3-dihydro-1-benzofuran-7-yl]-N-(4-fluorophenyl)amine] as the compound, how does the Ki read?
**A.** 310 nM

**Q.** Which Ki does the source give for `NCC1Cc2cccc(Nc3ccc(Cl)c(Cl)c3)c2O1` (racemic) [Example 179, (±)-N-[2-(aminomethyl)-2,3-dihydro-1-benzofuran-7-yl]-N-(3,4-dichlorophenyl)amine] here?
**A.** 435 nM

**Q.** Which Ki does the source give for `Cc1ccc(Nc2cccc3c2OC(CN)C3)c(C)c1` (racemic) [Example 180, (±)-N-[2-(aminomethyl)-2,3-dihydro-1-benzofuran-7-yl]-N-(2,4-dimethylphenyl)amine] here?
**A.** 290 nM

**Q.** With `Cc1ccc(Nc2cccc3c2OC(CN)C3)cc1C` (racemic) [Example 181, (±)-N-[2-(aminomethyl)-2,3-dihydro-1-benzofuran-7-yl]-N-(3,4-dimethylphenyl)amine] as the compound, how does the Ki read?
**A.** 146 nM

**Q.** `Cc1cccc(Nc2cccc3c2OC(CN)C3)c1` (racemic) [Example 182, (±)-N-[2-(aminomethyl)-2,3-dihydro-1-benzofuran-7-yl]-N-(3-methylphenyl)amine] was tested. Which Ki did it give?
**A.** 279 nM

**Q.** For `NCC1Cc2cccc(Nc3cccc(F)c3)c2O1` (racemic) [Example 183, (±)-N-[2-(aminomethyl)-2,3-dihydro-1-benzofuran-7-yl]-N-(3-fluorophenyl)amine], which Ki is on record?
**A.** 178 nM

**Q.** Which Ki does the source give for `NCC1Cc2cccc(Nc3cccc(C(F)(F)F)c3)c2O1` (racemic) [Example 184, (±)-N-2-(aminomethyl)-N-[3-(trifluoromethyl)phenyl]-2,3-dihydro-1-benzofuran-7-amine] here?
**A.** 185 nM

**Q.** How did the Ki turn out when `COc1ccc(Nc2cccc3c2OC(CN)C3)cc1C` (racemic) [Example 185, (±)-N-[2-(aminomethyl)-2,3-dihydro-1-benzofuran-7-yl]-N-(4-methoxy-3-methylphenyl)amine] was run?
**A.** 159 nM

**Q.** For `NCC1Cc2cccc(Nc3cc(F)cc(F)c3)c2O1` (racemic) [Example 186, (±)-N-[2-(aminomethyl)-2,3-dihydro-1-benzofuran-7-yl]-N-(3,5-difluorophenyl)amine], which Ki is on record?
**A.** 171 nM

**Q.** `NCC1Cc2cccc(Nc3cccc(OC(F)(F)F)c3)c2O1` (racemic) [Example 187, (±)-N-[2-(aminomethyl)-2,3-dihydro-1-benzofuran-7-yl]-N-(3-trifluoromethoxy)phenyl]amine] was tested. Which Ki did it give?
**A.** 247 nM

**Q.** For `Cc1ccc(Nc2cccc3c2OC(CN)C3)cc1Cl` (racemic) [Example 188, (±)-N-[2-(aminomethyl)-2,3-dihydro-1-benzofuran-7-yl]-N-(3-chloro-4-methylphenyl)amine], which Ki is on record?
**A.** 579 nM

**Q.** For `NCC1Cc2cccc(Nc3cc(Cl)cc(Cl)c3)c2O1` (racemic) [Example 189, (±)-N-[2-(aminomethyl)-2,3-dihydro-1-benzofuran-7-yl]-N-(3,5-dichlorophenyl)amine], which Ki is on record?
**A.** 363 nM

**Q.** How did the Ki turn out when `NCC1Cc2cccc(Nc3cccc(Cl)c3)c2O1` (racemic) [Example 190, (±)-N-[2-(aminomethyl)-2,3-dihydro-1-benzofuran-7-yl]-N-(3-chlorophenyl)amine] was run?
**A.** 186 nM

**Q.** How did the Ki turn out when `Cc1cc(C)cc(Nc2cccc3c2OC(CN)C3)c1` (racemic) [Example 192, (±)-N-[2-(aminomethyl)-2,3-dihydro-1-benzofuran-7-yl]-N-(3,5-dimethylphenyl)amine] was run?
**A.** 142 nM

**Q.** How did the Ki turn out when `NCC1Cc2cccc(Nc3ccc(F)c(Cl)c3)c2O1` (racemic) [Example 193, (±)-N-[2-(aminomethyl)-2,3-dihydro-1-benzofuran-7-yl]-N-(3-chloro-4-fluorophenyl)amine] was run?
**A.** 246 nM

**Q.** How did the Ki turn out when `NCC1Cc2cccc(Nc3ccccc3F)c2O1` (racemic) [Example 194, (±)-N-[2-(aminomethyl)-2,3-dihydro-1-benzofuran-7-yl]-N-(2-fluorophenyl)amine] was run?
**A.** 127 nM

**Q.** Which Ki does the source give for `NCC1Cc2cc(F)cc(-c3cccc(F)c3)c2O1` (racemic) [Example 196, (±)-{[5-fluoro-7-(3-fluorophenyl)-2,3-dihydro-1-benzofuran-2-yl]methyl}amine] here?
**A.** 108 nM

**Q.** `COc1cccc(-c2cc(F)cc3c2OC(CN)C3)c1` (racemic) [Example 197, (±)-{[5-fluoro-7-(3-methoxyphenyl)-2,3-dihydro-1-benzofuran-2-yl]methyl}amine] was tested. Which Ki did it give?
**A.** 63 nM

**Q.** `NCC1Cc2cc(F)cc(-c3cncnc3)c2O1` (racemic) [Example 210, (±)-[(5-fluoro-7-pyrimidin-5-yl-2,3-dihydro-1-benzofuran-2-yl)methyl]amine] was tested. Which Ki did it give?
**A.** 36 nM

**Q.** How did the Ki turn out when `NCC1Cc2cc(Cl)cc(-c3ccc(F)c(Cl)c3)c2O1` (racemic) [Example 259, (±)-{[5-chloro-7-(3-chloro-4-fluorophenyl)-2,3-dihydro-1-benzofuran-2-yl]methyl}amine] was run?
**A.** 69 nM

**Q.** Which Ki does the source give for `CCc1cc2c(c(-c3ccccc3C)c1)OC(CN)C2` (racemic) [Example 305, (±)-{[5-ethyl-7-(2-methylphenyl)-2,3-dihydro-1-benzofuran-2-yl]methyl}amine] here?
**A.** 1.1 nM

**Q.** With `COc1ccccc1-c1cc(C(F)(F)F)cc2c1OC(CN)C2` (racemic) [Example 316, (±)-{[5-(trifluoromethyl)-7-(2-methoxyphenyl)-2,3-dihydro-1-benzofuran-2-yl]methyl}amine] as the compound, how does the Ki read?
**A.** 64 nM

**Q.** For `NCC1Cc2cc(C(F)(F)F)cc(-c3ccccc3C(F)(F)F)c2O1` (racemic) [Example 317, (±)-{[5-(trifluoromethyl)-7-(2-(trifluoromethyl)phenyl)-2,3-dihydro-1-benzofuran-2-yl]methyl}amine], which Ki is on record?
**A.** 84 nM

**Q.** For `Cc1cccc(-c2cc(C(F)(F)F)cc3c2OC(CN)C3)c1` (racemic) [Example 318, (±)-{[5-(trifluoromethyl)-7-(3-methylphenyl)-2,3-dihydro-1-benzofuran-2-yl]methyl}amine], which Ki is on record?
**A.** 98 nM

**Q.** For `NCC1Cc2cc(C(F)(F)F)cc(-c3cccc(F)c3)c2O1` (racemic) [Example 319, (±)-{[5-(trifluoromethyl)-7-(3-fluorophenyl)-2,3-dihydro-1-benzofuran-2-yl]methyl}amine], which Ki is on record?
**A.** 83 nM
